According to patent EP0437790B1, “Antithrombotic compounds” (MERRELL DOW PHARMACEUTICALS INC., priority 1989, dated 1991):

Columns and labels:
[1] = tested on: canine; assay: canine model of cyclic coronary blood flow reduction (Folts); type: in vivo; conditions: Canis lupus familiaris, iv, cyclic flow reduction of the left anterior descending coronary artery, read-out: DOSAGE TO PREVENT CFR
Text: This procedure is well known in the art and has been described by John D. Folts, Edward B. Crowell Jr. and George G. Rowe, Circulation Vol 54, pages 365-370 (1976).
In Folts's model, the left anterior descending coronary artery of a canine is surgically isolated and the endothelial lining of this artery is purposefully damaged by squeezing the vessel in order to insure that the platelets will have the opportunity to come in contact with the collagen underlying the endothelial lining. This initiates the process of thrombus formation which was described above. An electronic flow probe is then placed on the artery so that blood flow through this vessel can be measured. A constrictor is then placed around the artery to produce a critical stenosis. The stenosis is said to be critical because the degree of stenosis is adjusted to abolish the hyperemic response following a 15 second occlusion of the artery. Shortly after producing the critical stenosis, blood flow through this segment of coronary artery will slowly decrease to near zero followed by a sudden return to control levels. The slow decrease in blood flow is caused by the formation of a platelet thrombus which occludes the artery. The sudden return of blood flow is due to dislodgement of the thrombus and/or its resulting conversion into an emboli.
This model can be utilized to test compounds for the ability to inhibit platelet aggregation and therefore prevent the formation of thrombi.
(§1) 1-(4-Fluorophenyl)-2-[4-[(4-methanesulfonamidophenyl)carbonyl]-1-piperidinyl]-ethanone (Compound #1) and 1-(4-fluorophenyl)-2-[4-[(4-acetamidophenyl)carbonyl]-1-piperidinyl]-ethanone (Compound #2) were tested in this model. For comparative purposes, 1-(3-pyridyl)-2-[4-[(4-methanesulfonamidophenyl)carbonyl]-1-piperidinyl]-ethanone (Compound #3) was also tested in this model. This compound was prepared and described in Example 35 of European Patent Application 0 235 752, supra.

[2] = biological target: T1, 5HT₂ receptor (Rattus norvegicus, UniProt P14842); assay: [³H] spiroperidol binding test; conditions: decrease in binding of [³H] spiroperidol to 5HT₂ receptors; read-out: IC₅₀
T1 construct: from tissue; host or cells: Brain membranes (rat frontal cortex)
Text: As noted above, the compounds are also serotonin 5HT₂ antagonists. […] In this test, 5HT₂ receptors are exposed to both [³H] spiroperidol, (a substance known to have a specific affinity for the receptor) and the test compound. The extent to which there is a decrease in binding of the [³H] spiroperidol to the receptor is indicative of the affinity of the test compound for the 5HT₂ receptor.
as §1, with “procedure.” for “model.”, “tested.” for “tested in this model. This compound was prepared and described in Example 35 of European Patent Application 0 235 752, supra.”

[3] = tested on: 5HT₂ receptor; assay: 5-DMT head twitch test; type: in vivo; conditions: ip; mice; head twitch induced by 5-methoxy-N,N-dimethyltryptamine
Method: Psychopharmacol., Vol. 3, pages 89-92, (1979). The administration of 5-methoxy-N,N-dimethyltryptamine (DMT) to mice typically produces a characteristic head twitch in the mice. In this test, the mice are administered 5-DMT and a test compound. An absence of head twitches in the mice is considered to be predictive of the ability of the test compound to antagonize the 5HT₂ receptor in vivo.

T1 sequence (P14842 whole entry): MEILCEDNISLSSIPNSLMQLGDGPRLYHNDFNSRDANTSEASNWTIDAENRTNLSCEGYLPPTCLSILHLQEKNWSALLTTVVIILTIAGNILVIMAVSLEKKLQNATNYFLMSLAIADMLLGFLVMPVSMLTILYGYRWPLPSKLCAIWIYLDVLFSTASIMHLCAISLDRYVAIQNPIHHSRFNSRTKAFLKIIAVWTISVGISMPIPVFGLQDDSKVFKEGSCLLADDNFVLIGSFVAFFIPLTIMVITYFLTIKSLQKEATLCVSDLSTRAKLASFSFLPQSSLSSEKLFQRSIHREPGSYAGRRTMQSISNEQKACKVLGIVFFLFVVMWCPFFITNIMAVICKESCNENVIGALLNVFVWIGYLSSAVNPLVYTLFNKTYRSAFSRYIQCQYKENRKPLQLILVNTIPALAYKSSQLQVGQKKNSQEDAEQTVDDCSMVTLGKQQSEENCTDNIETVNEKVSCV

SMILES: CS(=O)(=O)Nc1ccc(C(=O)C2CCN(CC(=O)c3ccc(F)cc3)CC2)cc1 [Compound #1, 1-(4-Fluorophenyl)-2-[4-[(4-methanesulfonamidophenyl)carbonyl]-1-piperidinyl]-ethanone]
- minimal effective dose [1]: 0.001 mg/kg
- IC50 [2]: 78 nM
- ED₅₀ FOR ABOLITION OF HEAD TWITCH [3]: 0.034 mg/kg

SMILES: CC(=O)Nc1ccc(C(=O)C2CCN(CC(=O)c3ccc(F)cc3)CC2)cc1 [Compound #2, 1-(4-fluorophenyl)-2-[4-[(4-acetamidophenyl)carbonyl]-1-piperidinyl]-ethanone]
- minimal effective dose [1]: 0.001 mg/kg
- IC50 [2]: 20 nM
- ED₅₀ FOR ABOLITION OF HEAD TWITCH [3]: 0.051 mg/kg

SMILES: CS(=O)(=O)Nc1ccc(C(=O)C2CCN(CC(=O)c3cccnc3)CC2)cc1 [Compound #3, 1-(3-pyridyl)-2-[4-[(4-methanesulfonamidophenyl)carbonyl]-1-piperidinyl]-ethanone, reference compound]
- minimal effective dose [1]: > 0.1 mg/kg
- IC50 [2]: > 5000 nM
- ED₅₀ FOR ABOLITION OF HEAD TWITCH [3]: > 200 mg/kg
